Data as given in US20050065436A1, “Rapid and non-invasive optical detection of internal bleeding” (priority 2003, published 2005).

Experiment: NIR absorption and fluorescence spectra of indocyanine green
Assay type: physicochemical
Excerpt: Many NIR fluorescence compounds are potential candidates for the present application. One of examples, indocyanine green (ICG), because of its low toxicity, has been used in many clinical applications. Indocyanine green, molecular weight 775, is a tricarbocyanine type of green dye. FIG. 2 and FIG. 3 show the NIR absorption, 650-850 nm, and NIR fluorescence spectra, 650-900 nm, of ICG, respectively. ICG has little absorption in the visible light. However, it is easily excited by an NIR light source with high quantum efficiency. Diode laser light sources with a wavelength between […] is suitable for ICG excitation. The fluorescent peak has a large red shifted relatively to the excitation wavelength. The fluorescence peak at 810 nm is within the NIR window for tissue optics. Due to ICG has a very large fluorescent quantum yield and a distinct peak at 810 nm, a sensitivity of 0.5 μg/ml can be achieved easily. FIG. 3(a), (b), and (c) show the fluorescence spectra of ICG in blood samples with various concentration between 0.5-500 μg/ml

- NIR fluorescence spectra (FIG. 3): 650-900 nm
- fluorescence peak (FIG. 3, concentrations 0.5-500 μg/ml): 810 nm
- NIR absorption (absorption spectrum, FIG. 2): 650-850 nm
Structure (SMILES): CC1(C)C(/C=C/C=C/C=C/C=C2\N(CCCCS(=O)(=O)O)c3ccc4ccccc4c3C2(C)C)=[N+](CCCCS(=O)(=O)[O-])c2ccc3ccccc3c21 [ICG, Indocyanine green]
